Data published in article PMC2744866 (Journal of medicinal chemistry, 2009).
“Also recorded” adds a separate entry of the source.

How the values were obtained:
human recombinant BHMT [1] = molecular target: T1, human recombinant BHMT (Homo sapiens, UniProt Q93088); experiment: BHMT inhibition assay; type: biochemical; details: for % Inhibition (average of triplicates): 20 μM inhibitor, 0.25 mM betaine, 0.1 mM DL-homocysteine, pH 7.5, 37 °C; for inhibition of BHMT, in words: qualitative statement
T1 sequence (Q93088 1-406): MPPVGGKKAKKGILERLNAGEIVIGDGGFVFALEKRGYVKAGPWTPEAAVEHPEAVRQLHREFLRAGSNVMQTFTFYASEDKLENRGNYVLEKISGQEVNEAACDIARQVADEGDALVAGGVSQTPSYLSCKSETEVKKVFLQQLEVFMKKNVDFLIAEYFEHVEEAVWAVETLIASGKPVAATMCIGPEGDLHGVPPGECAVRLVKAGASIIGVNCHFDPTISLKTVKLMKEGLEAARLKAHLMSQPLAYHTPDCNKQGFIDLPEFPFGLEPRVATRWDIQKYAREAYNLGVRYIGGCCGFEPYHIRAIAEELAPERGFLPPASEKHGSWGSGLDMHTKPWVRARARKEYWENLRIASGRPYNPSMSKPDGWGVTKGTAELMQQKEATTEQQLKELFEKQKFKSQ

[2] = 1H and 13C NMR pH titration; type: physicochemical; details: NMR titration over broad pH range
human recombinant BHMT [3] = molecular target: T1, human recombinant BHMT; experiment: Isothermal titration calorimetry of inhibitor binding to BHMT; details: ITC
[4] = pH 7.5, read-out: % Inhibition (average of triplicates)

Structure (SMILES) | inhibition of BHMT, in words (human recombinant BHMT [1]) | also measured
C[N+](C)(CCSCCC(N)C(=O)O)CC(=O)[O-] (racemic) [Compound 12, (RS)-2-{[2-(3-Amino-3-carboxypropylthio)ethyl]dimethylammonium}acetate] |  | % Inhibition (average of triplicates) (human recombinant BHMT [1]): very weak inhibition
NC(CCSCCNCC(=O)O)C(=O)O (racemic) [Compound 16, (RS)-2-Amino-4-[2-(carboxymethylamino)ethylthio]butanoic Acid] |  | pK2 of secondary/tertiary amino group [2]: ~9.5
NC(CCCSCCCC(=O)O)C(=O)O (racemic) [Compound 7, (RS)-2-Amino-5-(3-carboxypropylthio)pentanoic Acid] | low inhibitory potency | 
NC(CCSCSCCC(=O)O)C(=O)O (racemic) [Compound 6, (RS)-2-Amino-4-[(2-carboxyethylthio)methylthio]butanoic Acid] | moderate inhibitory potency | 
NC(CC[Se]CCCCC(=O)O)C(=O)O (racemic) [Compound 9, (RS)-5-(3-Amino-3-carboxypropylselanyl)pentanoic Acid] | strongly inhibited | fold weaker than compound 1 (human recombinant BHMT [1]; compared with reference inhibitor 1): 5 fold
NC(CCOCCCCC(=O)O)C(=O)O (racemic) [Compound 8, (RS)-5-(3-Amino-3-carboxypropoxy)pentanoic Acid] | almost inactive | 
NC(CCSSCCCC(=O)O)C(=O)O (racemic) [Compound 5, (RS)-2-Amino-4-[(3-carboxypropyl)disulfanyl]butanoic acid] | very weak inhibitor | 
CN(CCSCCC(N)C(=O)O)CC(=O)O (racemic) [Compound 13, (RS)-2-Amino-4-{2-[(carboxymethyl)(methyl)amino]ethylthio}-butanoic Acid] | promising, but still moderate, inhibition | pK2 of secondary/tertiary amino group [2]: ~9.5
C[C@@H](CCSCC[C@@H](N)C(=O)O)CC(=O)O (racemic) [Compound 20] | highly potent inhibitors; also recorded: equipotent | 
CN(CCCSCCC(N)C(=O)O)CC(=O)O (racemic) [Compound 19, (RS)-2-Amino-4-{3-[(carboxymethyl)(methyl)amino]propylthio}butanoic Acid] | only a modest inhibitor | 
C[N+](C)(CSCCC(N)C(=O)O)CC(=O)[O-] (racemic) [Compound 11, (RS)-2-{[(3-Amino-3-carboxypropylthio)methyl]dimethylammonium}acetate] |  | % Inhibition (average of triplicates) (human recombinant BHMT [1]): completely inactive
NC(CCCCCCCC(=O)O)C(=O)O (racemic) [Compound 10, (RS)-2-Aminodecanedioic Acid] | almost inactive | 
C[N+](C)(CCCSCCC(N)C(=O)O)CC(=O)[O-] (racemic) [Compound 18, (RS)-2-{[3-(3-Amino-3-carboxypropylthio)propyl]dimethylammonio}acetate] | did not inhibit BHMT at all | 
CC(C)(CCSCCC(N)C(=O)O)CC(=O)O (racemic) [Compound 21] | highly potent inhibitors | enthalpic contribution ΔH (human recombinant BHMT [3]; 25 °C, pH 7.5): -29.5 ± 1.2 kcal/mol; entropic contribution −TΔS (human recombinant BHMT [3]; 25 °C, pH 7.5): 19.6 ± 1.3 kcal/mol; association constant Ka (human recombinant BHMT [3]; 25 °C, pH 7.5, S-enantiomer): (2.0 ± 0.6) × 10^7 M^−1; stoichiometry of the main interaction (human recombinant BHMT [3]; inhibitor per BHMT monomer): 1.1 ± 0.1
NC(CCSCCCCC(=O)O)C(=O)O (stereo not shown) [Compound 1, reference compound] |  | inhibition at 1 µM (human recombinant BHMT [1]; [4]): 97.6%; inhibition at 20 µM (human recombinant BHMT [1]; [4]): 100%
